Values joined by “and” are separate entries in the source; they are usually repeats but may differ in a detail not shown here. Equal entries are not always repeated. Where two headings read alike, the source gives them in different places.
Tests used:
female DBF mice = assay: Mouse hypercalcemia assay; assay type: in vivo; conditions: orally via gavage for 6 days; serum ionized calcium 6 hours after last dosing
Text: 4. The Mouse Hypercalcemia Assay
(4) Materials and Method for The Mouse Hypercalcemia Assay: […]

[1] = system: KERtr cells (Human skin keratinocyte); assay: Keratinocyte proliferation assay; assay type: cell-based; conditions: BrdU incorporation, read-out: Kera. Prolif. IC50
Method: 5. The Keratinocyte Proliferation Assay
This Assay is indicative for the treatment of psoriasis.
(5) The Keratinocyte Proliferation Assay:
KERtr cells (Human skin keratinocyte transformed with a retrovirus vector, obtained from ATCC) were plated in 96-well flat-bottomed plates (3000 cells/well) in 100 μl keratinocyte serum free medium supplemented with bovine pituitary extract in the absence of EGF (Life Technologies, Rockville, Md.) and incubated at 37° C. for two days. The cells were treated with various concentrations of VDR ligands (ten-fold serial dilution from 10,000 nM to 0.1 nM in triplicate), dissolved in 100 μl keratinocyte serum free medium supplemented with bovine pituitary extract in the absence of EGF and incubated at 37° C. for 72 hr. BrdU (5-bromo-2′-deoxyuridine) incorporation was analyzed as a measure of DNA replication (Cell proliferation ELISA kit, Roche Diagnostics, Indianapolis, Ind.) and absorbance was measured at 405 nm. Potency values (IC50) values were determined as the concentration (nM) of compound that elicited a half-maximal response.

rat osteocalcin promoter = assay: OCN (osteocalcin) promoter assay in RG-15 (ROS 17/2.8) cells; assay type: cell-based; conditions: 48 hr treatment, luciferase
Method: 3. The OCN (Osteocalcin) Promoter Assay
The OCN Promoter Assay is an indicator and marker for osteoporosis. […] Preferred assay results are less than 50 nM.
(3) Materials and Method for The OCN Promoter Assay:
The activation of osteocalcin by VDR ligands was evaluated in a rat osteoblast-like cell line RG-15 (ROS 17/2.8) stably expressing rat osteocalcin promoter fused with luciferase reporter gene. […] Confluent RG-15 cells maintained in DMEM/F-12 medium (3:1) containing 5% FBS, 300 μg/ml G418 and at 37° C. under 5% CO2/95% air atmosphere were trypsinized (0.25% trypsin) and plated into white opaque 96-well cell culture plates (25000 cells/well). After 24 hr, cells (in DMEM/F-12 medium+2% FBS) were treated with various concentrations of compounds, dissolved in DMSO. The final DMSO concentration remained at 0.01% (v/v). After 48 hr treatment, the medium was removed, cells were lysed with 50 μl of lysis buffer (From Luciferase reporter assay system, Roche Diagnostics, Indianapolis, Ind.) and assayed for luciferase activity using the Luciferase Reporter Gene Assay kit from Boehringer Mannheim as per manufacturer's specifications.

[2] = Homo sapiens, Keratinocyte, 72 h

With `CCC(CC)(c1ccc(CCC(=O)N(C)C)c(C)c1)c1ccc(OCC(O)C(C)(C)C)c(C)c1` (centres unmarked) [Ex. 8, 3′-[4-(2-hydroxy-3,3-dimethylbutoxy)-3-methylphenyl]-3′-[4-(2-dimethylcarbamoylethyl)-3-methylphenyl]pentane] the “Mouse Hypercal” value (female DBF mice) was 100 µg/kg/day and the IC50 [1, 2] was 330 nM.

With `CCC(CC)(c1ccc(OC(C)C(O)C(C)(C)C)c(C)c1)c1ccc(C(=O)N[C@@H](C)C(=O)O)c(C)c1` (some centres unmarked) [Ex. 47, (L)-2-(4-{1-Ethyl-1-[4-(2-hydroxy-1,3,3-trimethyl-butoxy)-3-methyl-phenyl]-propyl}-2-methyl-benzoylamino)-propionic acid] the “Mouse Hypercal” value (female DBF mice) was 3000 µg/kg/day and the IC50 [1, 2] was 1000 nM.

For `CCC(CC)(c1ccc(OCC(O)C(C)(C)C)c(C)c1)c1ccc(C(=O)NS(C)(=O)=O)c(C)c1` (centres unmarked) [Ex. 5], the EC50 (rat osteocalcin promoter; Rattus norvegicus, 48 h) was 42 nM, the “Mouse Hypercal” value (female DBF mice) was 100 µg/kg/day and the IC50 [1, 2] was 375 nM.

With `CCC(CC)(c1ccc(OCC(=O)C(C)(C)C)c(C)c1)c1ccc(C(=O)O)c(C)c1` [Ex. 17, 4-{1-[4-(3,3-dimethyl-2-oxobutoxy)-3-methylphenyl]-1-ethylpropyl}-2-methylbenzoic acid] the “Mouse Hypercal” value (female DBF mice) was greater than 3000 µg/kg/day and the IC50 [1, 2] was 1000 nM.

Compound `CCC(CC)(c1ccc(OCC(O)C(C)(C)C)c(C)c1)c1ccc(C(=O)O)c(Cl)c1` (racemic) [Ex. 39, 3′-[3-methyl-4-(2-hydroxy-3,3-dimethylbutoxy)phenyl]-3′-(3-chloro-4-carboxyphenyl)pentane] has an EC50 (rat osteocalcin promoter) of 61 nM, an EC50 (rat osteocalcin promoter; Rattus norvegicus, 48 h) of 74 nM and an IC50 [1, 2] of 508 nM.

For `CCC(CC)(c1ccc(OC(C)C(O)C(C)(C)C)c(C)c1)c1ccc(C(=O)OC)c(C)c1` (single isomer, unassigned) [Ex. 10Db, 3′-[4-(2-hydroxy-1,3,3-trimethylbutoxy)-3-methylphenyl]-3′-[4-methoxycarbonyl-3-methylphenyl]pentane], the EC50 (rat osteocalcin promoter) was 15 nM and the IC50 ([1]; 72 hr) was 1000 nM.

For `CCC(CC)(c1ccc(OCC(O)C(C)(C)C)c(C)c1)c1ccc(C(=O)NCCS(C)(=O)=O)c(C)c1` (single isomer, unassigned) [Ex. 15A, 4-{1-ethyl-1-[4-(2-hydroxy-3,3-dimethylbutoxy)-3-methylphenyl]propyl}-N-(2-methanesulfonylethyl)-2-methylbenzamide], the EC50 (rat osteocalcin promoter) was 35 nM and 43 nM, the “Mouse Hypercal” value (female DBF mice) was 1500 µg/kg/day and the IC50 [1, 2] was 117 nM.

With `CCC(CC)(c1ccc(OC(C)C(O)C(C)(C)C)c(C)c1)c1ccc(C(=O)N(C)CC(=O)O)c(C)c1` (single isomer, unassigned) [Ex. 53, [(4-{1-Ethyl-1-[4-(2-hydroxy-1,3,3-trimethyl-butoxy)-3-methyl-phenyl]-propyl}-2-methyl-benzoyl)-methyl-amino]-acetic acid] the “Mouse Hypercal” value (female DBF mice) was greater than 3000 µg/kg/day and the IC50 ([1]; 72 hr) was 224 nM.

Work on `CCC(CC)(c1ccc(OC(C)C(O)C(C)(C)C)c(C)c1)c1ccc(C(=O)O)c(C)c1` (racemic) [Ex. 28, 4-{1-Ethyl-1-[4-(2-hydroxy-1,3,3-trimethyl-butoxy)-3-methyl-phenyl]-propyl}-2-methyl-benzoic acid] yielded an EC50 (rat osteocalcin promoter) of 84 nM, an EC50 (rat osteocalcin promoter; Rattus norvegicus, 48 h) of 106 nM and an IC50 [1, 2] of 240 nM.

For `CCC(CC)(c1ccc(C(=O)O)cc1)c1ccc(OCC(O)C(C)(C)C)c(Cl)c1` (single isomer, unassigned) [Ex. 36, 3′-[3-chloro-4-(2-hydroxy-3,3-dimethylbutoxy)phenyl]-3′-[4-carboxyphenyl]pentane], the “Mouse Hypercal” value (female DBF mice) was greater than 300 µg/kg/day and the IC50 ([1]; 72 hr) was 139 nM.

`CCC(CC)(c1ccc(OCC(=O)C(C)(C)C)c(C)c1)c1ccc(OCC(=O)C(C)(C)C)c(C)c1` [DD, reference compound] was tested, and the EC50 (rat osteocalcin promoter; Rattus norvegicus, 48 h) was 31.1 nM, the “Mouse Hypercal” value (female DBF mice) was 1000 µg/kg/day and the IC50 [1, 2] was 1060 nM.

`CCC(CC)(c1ccc(OC(C)C(O)C(C)(C)C)c(C)c1)c1ccc(C(=O)N[C@H](C)C(=O)O)c(C)c1` (some centres unmarked) [Ex. 48, (D)-2-(4-{1-ethyl-1-[4-(2-hydroxy-1,3,3-trimethyl-butoxy)-3-methyl-phenyl]-propyl}-2-methyl-benzoylamino)-propionic acid] was tested, and the “Mouse Hypercal” value (female DBF mice) was less than 1000 µg/kg/day and the IC50 ([1]; 72 hr) was 1000 nM.
